In patent publication US20210177856A1, “USE OF ATR INHIBITORS IN COMBINATION WITH PARP INHIBITORS” (Repare Therapeutics Inc., priority 2019, published 2021):

Key:
[1] = system: RPE1-hTERT TP53−/− RNASEH2B−/− cells; assay: 6-day CTG viability assay, RPE1-hTERT TP53−/− RNASEH2B−/− cells; assay type: cell-based; details: Compound 43 combined with niraparib; compared with Compound 121 plus niraparib; FIGS. 3A and 3B
Method: Viability was measured with a 6-day CTG assay. Mean of three independent experiments±SD. Solid lines, non-linear least squares fit to a four-parameter dose-response model. IC50 values are indicated below panels. […] Viability was measured with a 6-day CTG assay. Mean of three independent experiments±SD. Solid lines, non-linear least squares fit to a four-parameter dose-response model. IC50 values are indicated below panels.

[2] = system: 5637 RNASEH2B+/+ and −/− cells; details: FIG. 5B
Method: FIG. 5A is a scheme showing the experimental design. 5637 cells were treated with niraparib alone or niraparib combined with an IC50 concentration of Compound 121 for indicated times with or without removal of compounds. Cell viability was analyzed by a CellTiter Glo (CTG) assay 168 h post treatment.
FIG. 5B is a chart showing apparent niraparib IC50 values in 5637 RNASEH2B+/+ and −/− cells from experiments described in FIG. 5A. Values were obtained by fitting mean data from three independent experiments to a four-parameter dose-response model. Error bars, 95% confidence interval (CI).
To guide the combined dosing of Compound 121 and niraparib in RNASEH2B-deficient tumor cells, a continuous 168 h concomitant treatment of 5637 RNASEH2B+/+ and −/− cells with both compounds was compared to either a 48 or 72 h treatment followed by removal of compounds and growth in drug-free media (FIG. 5A).

[3] = system: 5637 RNASEH2B−/− cells; assay: ZIP synergy matrix and 7-day CTG viability assay, 5637 RNASEH2B−/− cells; assay type: cell-based; details: for concentration at maximum synergy, lower in RNASEH2B−/− than in RNASEH2B+/+ cells: FIGS. 1A and 1B
Method: (§1) FIG. 1B is chart showing ZIP synergy score matrix in RNASEH2B−/− cells. […] Score of >10 indicates synergy, while <(−10) indicates antagonism. Dashed lines represent the IC50 value of each compound in the respective cell line. […] Viability was measured with a 7-day CTG assay. Mean of three independent experiments±SD. Solid lines, non-linear least squares fit to a four-parameter dose-response model. IC50 values are indicated below panels. […] Viability was measured with a 7-day CTG assay. Mean of three technical replicates±SD. Solid lines, non-linear least squares fit to a four-parameter dose-response model. IC50 values are indicated below panels.

[4] = system: 5637 RNASEH2B+/+ cells; assay: ZIP synergy matrix and 7-day CTG viability assay, 5637 RNASEH2B+/+ cells; assay type: cell-based; details: combination of Compound 121 and niraparib, FIG. 1A
Method: as §1, with “1A” for “1B”, “RNASEH2B+/+” for “RNASEH2B−/−”

[5] = system: MIAPACA2 ATM−/− cells; assay: 48 h treatment, CTG viability at day 6, MIAPACA2 ATM−/− cells; assay type: cell-based; details: 48 h treatment with combination of niraparib and Compound 121; MIAPACA2 ATM CRISPR knockout; FIGS. 6A and 6B
Method: (§2) Cells were treated for 48 h, followed by removal of the compounds and growth in fresh media. Viability was measured at day 6 by a CTG assay. Mean of three technical replicates±SD. Solid lines, non-linear least squares fit to a four-parameter dose-response model. IC50 values are indicated below panels. […] Cells were treated for 48 h, followed by removal of the compounds and growth in fresh media. Viability was measured at day 6 by a CTG assay. Mean of three technical replicates±SD. Solid lines, non-linear least squares fit to a four-parameter dose-response model. IC50 values are indicated below panels.

[6] = system: DLD1 BRCA2−/− cells; assay: 48 h treatment, CTG viability, DLD1 BRCA2−/− cells; assay type: cell-based; details: 48-hr treatment with combination of Compound 121 and talazoparib; FIGS. 8A and 8B
Method: (§3) FIG. 8A is a chart showing dose response curves of DLD1 BRCA2+/+ cells to talazoparib in the absence (DMSO) or presence of indicated concentrations of Compound 121. Cells were treated for 48 h, followed by removal of the compounds and growth in fresh media. Viability was measured at day 6 by a CTG assay. Mean of three independent experiments±SD. Solid lines, non-linear least squares fit to a four-parameter dose-response model. IC50 values are indicated below panels.
as §3, with “8B” for “8A”, “BRCA2−/−” for “BRCA2+/+”, “9” for “6”

[7] = system: RPE1-hTERT TP53−/− CDK12−/− cells; assay: 48 h treatment, CTG viability at day 6, RPE1-hTERT TP53−/− CDK12−/− cells; assay type: cell-based; details: 48-hr treatment with combination of Compound 121 and niraparib; FIGS. 7A and 7B
Method: as §2, with “independent experiments±SD.” for “technical replicates±SD.”

[8] = system: ALT-positive (ALT+) cancer cell lines; assay: Cell viability of ALT+ and ALT− cancer cell line panels; assay type: cell-based; details: combination of low-nanomolar doses of Compound 121 and talazoparib; five ALT+ lines; FIGS. 9A and 9B
Method: FIG. 9A is a chart showing cell viability for ALT+ and ALT− cell lines that were untreated, treated with talazoparib alone, treated with compound 121 alone, or treated with a combination of talazoparib and compound 121.
FIG. 9B is a chart showing the cell viability for ALT+ and ALT− cells that were treated with a combination of talazoparib and compound 121.

[9] = combination of Compound 121 and niraparib, 5637 cells

Row | Compound | sensitization of RNASEH2B-deficient cells [1] | apparent IC50 value of niraparib ([2]; in presence of Compound 121 (IC50 concentration), dosed continuously for 168 h) | difference in apparent IC50 values of niraparib when treatment shortened ([2]; with Compound 121, 72 or 48 h treatment then drug-free media vs 168 h continuous) | concentration at maximum synergy, lower in RNASEH2B−/− than in RNASEH2B+/+ cells [3, 9] | shift of apparent IC50 of niraparib from RNASEH2B+/+ to RNASEH2B−/− cells ([3]; in presence of Compound 121, 5637 cells, 7-day CTG, FIGS. 2A and 2B) | sensitization of RNASEH2B-deficient cells ([3]; Compound 121 combined with talazoparib, 5637 cells, 7-day CTG, FIGS. 4A and 4B) | synergy with niraparib (ZIP synergy score) ([3]; combination of Compound 121 and niraparib, 5637 RNASEH2B−/− cells, FIG. 1B) | synergy with niraparib (ZIP synergy score) [4] | synergistic sensitization of ATM−/− clone [5] | sensitization of isogenic cell line lacking BRCA2 [6] | sensitization of isogenic cell line lacking CDK12 [7] | sensitivity of ALT+ panel relative to ALT− control panel [8]
1 | C[C@@H]1COCCN1c1cc(-c2ccccc2S(C)(=O)=O)c2cnn(-c3cc[nH]n3)c2n1 [Compound 43] | sensitized RNASEH2B-deficient cells to a similar extent | – | – | – | – | – | – | – | – | – | – | –
2 | NC(=O)c1cccc2cn(-c3ccc([C@@H]4CCCNC4)cc3)nc12 [niraparib, reference compound] | – | decreased | No significant difference | ca. ten-fold | ≤ 200 fold | – | – | – | – | – | – | –
3 | C[C@@H]1COCCN1c1cc([C@@]2(O)C[C@H]3CC[C@@H](C2)O3)c2cnn(-c3cc[nH]n3)c2n1 [Compound 121] | – | – | – | ca. three-fold | – | strong sensitization | strongly synergized | strongly synergized | > 300 × | synergistically sensitized | synergistically sensitized | more sensitive
